Laboratory results: patent US5208263A, “Anti-androgen compounds” (Arch Development Corporation, priority 1989, dated 1993)
Read-outs that look alike come from different tables or passages of the source.

Assays:
[1] = molecular target: T1, androgen receptor of rat ventral prostate (Rattus norvegicus, UniProt P15207); test: Competition with [3H]R1881 for androgen receptor binding, cell-free assay (Table 1)
T1 construct: androgen receptors isolated, as described in Chang, C., et al., J. Steroid Biochem., 27:123 (1987), from rat ventral prostate; from tissue; host or cells: rat ventral prostate
T1 sequence (P15207 1-902): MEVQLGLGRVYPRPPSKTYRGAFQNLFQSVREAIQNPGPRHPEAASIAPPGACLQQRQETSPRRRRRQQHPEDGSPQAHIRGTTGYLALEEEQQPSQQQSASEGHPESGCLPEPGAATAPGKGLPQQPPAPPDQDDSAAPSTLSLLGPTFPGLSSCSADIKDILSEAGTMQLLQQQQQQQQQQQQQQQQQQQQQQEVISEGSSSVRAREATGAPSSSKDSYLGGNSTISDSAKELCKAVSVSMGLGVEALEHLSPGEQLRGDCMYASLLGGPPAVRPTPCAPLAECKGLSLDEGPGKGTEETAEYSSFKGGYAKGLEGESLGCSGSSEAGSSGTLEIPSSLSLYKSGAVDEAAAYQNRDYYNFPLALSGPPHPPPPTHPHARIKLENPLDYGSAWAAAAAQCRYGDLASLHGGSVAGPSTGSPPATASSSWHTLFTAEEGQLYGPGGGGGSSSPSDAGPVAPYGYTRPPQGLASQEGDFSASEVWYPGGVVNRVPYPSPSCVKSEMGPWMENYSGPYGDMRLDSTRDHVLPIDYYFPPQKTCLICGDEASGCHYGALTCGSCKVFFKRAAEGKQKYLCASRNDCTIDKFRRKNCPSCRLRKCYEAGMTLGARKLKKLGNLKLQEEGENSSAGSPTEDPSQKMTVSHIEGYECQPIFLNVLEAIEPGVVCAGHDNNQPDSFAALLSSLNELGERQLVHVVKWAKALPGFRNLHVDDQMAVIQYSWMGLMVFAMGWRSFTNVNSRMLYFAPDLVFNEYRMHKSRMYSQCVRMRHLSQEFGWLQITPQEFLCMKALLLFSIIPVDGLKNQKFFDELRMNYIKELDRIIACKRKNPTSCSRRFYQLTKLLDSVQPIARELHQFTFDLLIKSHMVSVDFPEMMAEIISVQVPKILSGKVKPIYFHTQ

[2] = tested on: androgen receptors; conditions: Chang et al. 1987; cited from earlier work
[3] = tested on: ventral prostate; conditions: rats; Chang et al. 1987; cited from earlier work
[4] = in parentheses, relative to R1881 = 100.00, cell-free, rat ventral prostate

Molecule | Relative receptor binding activity (RBA) [1] | IC50 ([1]; read-out: IC50 (concentration of test compound needed to show 50% inhibition of [3H]R1881 binding), [3H]R1881 (17a-methyltrienolone) binding, androgen receptor of rat ventral prostate, cell-free) | IC50 [1] | Relative receptor binding activity (RBA) [1, 4] | interaction with androgen receptors in cell-free systems [2] | inhibition of growth of the ventral prostate [3]
1-[2-(9(or 10)-methyl-9,10-dihydrophenanthryl)]-1-ethanol [Compound 11] | 0.29 | 6.8 µM | – | – | – | –
O=C1CCc2c1ccc1c2CCc2ccccc2-1 (racemic) [Compound 6, 6,7,16,17-Tetrahydro-15H-cyclopenta[a]phenanthren-17-one] | 0.11 | – | 17.8 µM | – | – | –
c1cc2c(c3c1CCCC3)CCCC2 [1,2,3,4,5,6,7,8-octahydro-phenanthrene, reference compound] | – | – | 200 µM | 0.01 | – | –
c1ccc2c(c1)CCc1ccccc1-2 [9,10-dihydrophenanthrene, reference compound] | – | – | 10 µM | 0.20 | interacts with androgen receptors in cell-free systems | inhibits the growth of the ventral prostate in rats
c1ccc2c(c1)CCc1ccccc1C2 [10,11-dihydro-5H-dibenzo-[a,d]cycloheptene, reference compound] | – | – | 60 µM | 0.03 | – | –
OC1CCc2c1ccc1c2CCc2ccccc2-1 (stereo not shown) [Compound 7, 6,7,16,17-tetrahydro-15H-cyclo-penta[a]phen-anthren-17-ol] | 0.48 | – | 4.2 µM | – | – | –
CC(O)c1ccc2c(c1)CCc1ccccc1-2 (stereo not shown) [Compound 9, 1-[2-(9,10-Dihydrophenanthryl)]-1-ethanol] | – | – | 2.6 µM | 0.77 | – | –
Oc1ccc2c(c1)CCc1ccccc1-2 [Compound 13, 2-Hydroxy-9,10-dihydrophenanthrene] | – | – | 7.9 µM | 0.25 | – | –
O=C1CCc2c(ccc3c2CCc2c(O)cccc2-3)C1 [Compound 22, 4'-oxo-7,8-cyclohexeno-9,10-dihydrophenanthren-1-ol] | – | – | 1.3 µM | 1.53 | – | –
O=C1CCc2c(ccc3c2ccc2c(O)cccc23)C1 [Compound 25, 4'-oxo-7,8-cyclohexenophenanthren-1-ol] | < 0.02 | – | > 100 µM | – | – | –
OCCc1ccc2c(c1)CCc1ccccc1-2 [Compound 26, 2-(2'-hydroxyethyl)-9,10-dihydrophenanthrene] | – | – | 3.6 µM | 0.56 | – | –
OCC(O)c1ccc2c(c1)CCc1ccccc1-2 (stereo not shown) [Compound 27, 2-(2',3'-dihydroxyethyl)-9,10-dihydrophenanthrene] | – | – | 47.9 µM | 0.04 | – | –
c1ccc2c(c1)ccc1ccccc12 [phenanthrene, reference compound] | – | – | 800 µM | 0.0025 | – | –
